Laboratory results published in ChEMBL document CHEMBL4190370, “Emerging New Targets for the Treatment of Resistant Fungal Infections” (J Med Chem, 2018).
≈ marks a conversion by molar mass, not a printed value.

What was measured:
Candida albicans [1] = test: Antifungal activity against fluconazole-resistant Candida albicans clinical isolate 3034 planktonic cells after 48 hrs by broth microdilution assay; format: functional; settings: isolate 3034, 48 h
Candida albicans [2] = test: Antifungal activity against fluconazole-resistant Candida albicans clinical isolate 4617 planktonic cells after 48 hrs by broth microdilution assay; format: functional; settings: isolate 4617, 48 h
Candida albicans [3] = test: Antifungal activity against fluconazole-resistant Candida albicans clinical isolate 4639 planktonic cells after 48 hrs by broth microdilution assay; format: functional; settings: isolate 4639, 48 h
Candida albicans [4] = test: Antifungal activity against fluconazole-resistant Candida albicans clinical isolate 5106 planktonic cells after 48 hrs by broth microdilution assay; format: functional; settings: isolate 5106, 48 h
Candida albicans [5] = test: Antifungal activity against fluconazole-resistant Candida albicans clinical isolate 4380 planktonic cells after 48 hrs by broth microdilution assay; format: functional; settings: isolate 4380, 48 h
Candida albicans [6] = test: Antifungal activity against fluconazole-resistant Candida albicans clinical isolate 2440 planktonic cells after 48 hrs by broth microdilution assay; format: functional; settings: isolate 2440, 48 h
Candida albicans [7] = test: Antifungal activity against fluconazole-resistant Candida albicans clinical isolate 2307 planktonic cells after 48 hrs by broth microdilution assay; format: functional; settings: isolate 2307, 48 h
Candida albicans [8] = test: Antifungal activity against fluconazole-resistant Candida albicans clinical isolate 412 planktonic cells after 48 hrs by broth microdilution assay; format: functional; settings: isolate 412, 48 h
Candida albicans [9] = test: Antifungal activity against fluconazole-resistant Candida albicans clinical isolate 1691 planktonic cells after 48 hrs by broth microdilution assay; format: functional; settings: isolate 1691, 48 h
Candida albicans [10] = test: Antifungal activity against fluconazole-resistant Candida albicans clinical isolate 3731 planktonic cells after 48 hrs by broth microdilution assay; format: functional; settings: isolate 3731, 48 h
Candida albicans [11] = test: Antifungal activity against fluconazole-resistant Candida albicans clinical isolate 6482 planktonic cells after 48 hrs by broth microdilution assay; format: functional; settings: isolate 6482, 48 h
Candida albicans [12] = test: Antifungal activity against fluconazole-resistant Candida albicans clinical isolate 6191 planktonic cells after 48 hrs by broth microdilution assay; format: functional; settings: isolate 6191, 48 h
Candida albicans [13] = test: Antifungal activity against fluconazole-resistant Candida albicans SC5314 planktonic cells after 48 hrs by broth microdilution assay; format: functional; settings: SC5314, 48 h
Candida albicans [14] = test: Antibiofilm activity against Candida albicans SC5314 assessed as inhibition of biofilm formation at 2 to 4 ug/ml after 24 hrs by XTT reduction assay; format: functional
Candida albicans [15] = test: Antibiofilm activity against Candida albicans SC5314 assessed as inhibition of mature biofilm formation at 8 to 32 ug/ml after 24 hrs by XTT reduction assay; format: functional
[16] = Inhibition of Aspergillus fumigatus AGM1
Candida albicans [17] = test: Antifungal activity against Candida albicans ATCC 90028 after 48 hrs by broth-microdilution method; format: functional; settings: ATCC 90028, 48 h
Candida albicans [18] = test: Antifungal activity against Candida albicans ATCC 24433 after 48 hrs by broth-microdilution method; format: functional; settings: ATCC 24433, 48 h
Candida albicans [19] = test: Antifungal activity against Candida albicans ATCC 44859 after 48 hrs by broth-microdilution method; format: functional; settings: ATCC 44859, 48 h
Candida albicans [20] = test: Antifungal activity against Candida albicans IFM 40009 after 48 hrs by broth-microdilution method; format: functional; settings: IFM 40009, 48 h
Candida albicans [21] = test: Antifungal activity against Candida albicans IFM 5728 after 48 hrs by broth-microdilution method; format: functional; settings: IFM 5728, 48 h
Candida albicans [22] = test: Antifungal activity against Candida albicans TIMM 0171 after 48 hrs by broth-microdilution method; format: functional; settings: TIMM 0171, 48 h
Candida albicans [23] = test: Antifungal activity against Candida albicans TIMM 0239 after 48 hrs by broth-microdilution method; format: functional; settings: TIMM 0239, 48 h
Cryptococcus neoformans [24] = test: Antifungal activity against Cryptococcus neoformans TIMM 3173 after 48 hrs by broth-microdilution method; format: functional; settings: TIMM 3173, 48 h
Aspergillus fumigatus [25] = test: Antifungal activity against Aspergillus fumigatus IFM 40808 after 48 hrs by broth-microdilution method; format: functional; settings: IFM 40808, 48 h
[26] = target: T1, Glycylpeptide N-tetradecanoyltransferase (Candida albicans (strain SC5314 / ATCC MYA-2876) (Yeast), UniProt P30418); test: Inhibition of Candida albicans ATCC 90028 NMT using GLTISKLFRR-NH2 as substrate assessed as reduction in [3H]-myristoylated peptide reaction product formation preincubated with substrate for 10 mins followed by enzyme addition measured after 10 mins by HPLC analysis
T1 sequence (P30418 whole entry): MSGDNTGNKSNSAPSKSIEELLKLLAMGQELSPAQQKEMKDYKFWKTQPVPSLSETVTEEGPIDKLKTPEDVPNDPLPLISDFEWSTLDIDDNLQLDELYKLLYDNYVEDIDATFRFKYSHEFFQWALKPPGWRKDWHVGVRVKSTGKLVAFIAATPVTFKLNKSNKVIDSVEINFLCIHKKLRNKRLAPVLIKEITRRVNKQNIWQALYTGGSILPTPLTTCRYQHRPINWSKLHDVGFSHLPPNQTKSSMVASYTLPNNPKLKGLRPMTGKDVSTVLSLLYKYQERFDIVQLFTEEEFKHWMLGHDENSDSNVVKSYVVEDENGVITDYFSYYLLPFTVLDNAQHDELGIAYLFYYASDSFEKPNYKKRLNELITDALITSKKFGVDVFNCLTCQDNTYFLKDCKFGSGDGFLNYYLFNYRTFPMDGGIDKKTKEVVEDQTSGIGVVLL

Candida albicans [27] = test: Antifungal activity against Candida albicans ATCC 10231 after 24 hrs by CLSI protocol based method; format: functional; settings: ATCC 10231, 24 h
Candida tropicalis = test: Antifungal activity against Candida tropicalis KKP 334 by CLSI protocol based method; format: functional
Aspergillus fumigatus [28] = test: Antifungal activity against Aspergillus fumigatus ATCC 46645 after 24 hrs; format: functional; settings: ATCC 46645, 24 h
Candida albicans [29] = test: Antifungal activity against Candida albicans; format: functional
Aspergillus fumigatus [30] = test: Antifungal activity against Aspergillus fumigatus MTU 06002; format: functional
Cryptococcus neoformans [31] = test: Antifungal activity against Cryptococcus neoformans; format: functional
Aspergillus fumigatus [32] = test: Antifungal activity against Aspergillus fumigatus; format: functional
Candida albicans [33] = test: Antifungal activity against Candida albicans infected in rat model of systemic candidiasis; format: functional, organism-based
[34] = Toxicity in ip dosed DBA/2 mouse infected with Candida albicans MY1055 administered bid for 2 days or qd for 4 days measured on day 4; format: organism-based; settings: in vivo
Candida albicans [35] = test: Synergistic antimicrobial activity against Candida albicans Ca2323 isolate at MIC concentration after 24 hrs at 30 degC in presence of G884; format: functional
Candida albicans [36] = test: Synergistic antimicrobial activity against Candida albicans Ca2323 isolate at MIC concentration after 24 hrs at 30 degC in presence of G365; format: functional
Saccharomyces cerevisiae [37] = test: Synergistic antimicrobial activity against Saccharomyces cerevisiae S288c isolate at MIC concentration after 24 hrs at 30 degC in presence of G365; format: functional
Saccharomyces cerevisiae [38] = test: Synergistic antimicrobial activity against Saccharomyces cerevisiae S288c isolate at MIC concentration after 24 hrs at 30 degC in presence of G884; format: functional
Candida albicans [39] = test: Inhibition of Cch1 in Candida albicans isolate 10 assessed as potentiation of fluconazole-induced antifungal activity by measuring fractional inhibitory concentration index after 24 hrs by checkerboard assay
Candida albicans [40] = test: Inhibition of Cch1 in Candida albicans isolate 16 assessed as potentiation of fluconazole-induced antifungal activity by measuring fractional inhibitory concentration index after 24 hrs by checkerboard assay

SMILES: CCCCCCCCCCCCCCCCOP(=O)([O-])OCC[N+](C)(C)C [MILTEFOSINE]
- MIC (Candida albicans [1]): 0.5 to 2 µg/mL (≈ 1.23 to 4.91 µM)
- MIC (Candida albicans [2]): 0.5 to 2 µg/mL (≈ 1.23 to 4.91 µM)
- MIC (Candida albicans [3]): 0.5 to 2 µg/mL (≈ 1.23 to 4.91 µM)
- MIC (Candida albicans [4]): 0.5 to 2 µg/mL (≈ 1.23 to 4.91 µM)
- MIC (Candida albicans [5]): 0.5 to 2 µg/mL (≈ 1.23 to 4.91 µM)
- MIC (Candida albicans [6]): 0.5 to 2 µg/mL (≈ 1.23 to 4.91 µM)
- MIC (Candida albicans [7]): 0.5 to 2 µg/mL (≈ 1.23 to 4.91 µM)
- MIC (Candida albicans [8]): 0.5 to 2 µg/mL (≈ 1.23 to 4.91 µM)
- MIC (Candida albicans [9]): 0.5 to 2 µg/mL (≈ 1.23 to 4.91 µM)
- MIC (Candida albicans [10]): 0.5 to 2 µg/mL (≈ 1.23 to 4.91 µM)
- MIC (Candida albicans [11]): 0.5 to 2 µg/mL (≈ 1.23 to 4.91 µM)
- MIC (Candida albicans [12]): 0.5 to 2 µg/mL (≈ 1.23 to 4.91 µM)
- MIC (Candida albicans [13]): 0.5 to 2 µg/mL (≈ 1.23 to 4.91 µM)
- inhibition (INH) (Candida albicans [14]): 90%
- inhibition (INH) (Candida albicans [15]): >90%

SMILES: Nc1ccc(O)c2c1C(=O)c1c(O)ccc(N)c1C2=O
- Ki [16]: 300 µM

SMILES: O=C(Nc1nc2ccc(NC(=O)[C@@H]3CCC[C@H](NCc4ccc5ccccc5c4)C3)cc2s1)C1CCCC1
- MIC (Candida albicans [17]): 0.78 µM (≈ 0.411 µg/mL)
- MIC (Candida albicans [18]): 0.78 µM (≈ 0.411 µg/mL)
- MIC (Candida albicans [19]): 0.78 µM (≈ 0.411 µg/mL)
- MIC (Candida albicans [20]): 0.78 µM (≈ 0.411 µg/mL)
- MIC (Candida albicans [21]): 0.78 µM (≈ 0.411 µg/mL)
- MIC (Candida albicans [22]): 0.78 µM (≈ 0.411 µg/mL)
- MIC (Candida albicans [23]): 0.78 µM (≈ 0.411 µg/mL)
- MIC (Cryptococcus neoformans [24]): > 25 µM
- MIC (Aspergillus fumigatus [25]): > 25 µM
- IC50 [26]: 0.00049 µM

SMILES: O=C(O)C[C@]1(C(=O)O)OC1C(=O)O (some centres undefined)
- MIC (Candida albicans [27]): > 512 µg/mL

SMILES: COC(=O)c1ccc(C[C@@H](C(=O)OC)[C@@H](O)C(=O)OC)cc1
- MIC (Candida tropicalis): 1000 µg/mL (≈ 3220 µM)

SMILES: CC1=C(O)C(=O)C=C2C1=CC=C1[C@@]2(C)CC[C@@]2(C)[C@@H]3C[C@](C)(C(=O)O)CC[C@]3(C)CC[C@]12C [CELASTROL]
- MIC (Aspergillus fumigatus [28]): 2 µM (≈ 0.901 µg/mL)

SMILES: CCOC(=O)c1ccccc1S(=O)(=O)NC(=O)Nc1nc(Br)cc(OC)n1
- MIC90 (Candida albicans [29]): 0.72 µg/mL (≈ 1.57 µM)

SMILES: C/N=[N+](\[O-])CC[C@H](N)C(=O)O
- IC80 (Aspergillus fumigatus [30]): 0.72 µg/mL (≈ 4.47 µM)

SMILES: Cc1c(COc2ccc(F)c(F)c2F)oc2cccc(OCCCNCc3cccnc3)c12
- MIC (Candida albicans [29]): 0.05 µg/mL (≈ 0.11 µM)
- MIC90 (Cryptococcus neoformans [31]): 3.13 µg/mL (≈ 6.86 µM)
- MIC (Aspergillus fumigatus [32]): 25 µg/mL (≈ 54.8 µM)
- EC50 (Candida albicans [33]): 7.1 mg/kg

SMILES: C=C1C2CC3[C@@H](C(C)C)[C@H](OC(=O)NCCCC)C[C@]3(C)CC2/C(C)=C\CC2[C@H](C)OC(=O)[C@@H](O)[C@@]12O (some centres undefined)
- LD50 at 4 days [34]: > 300 mg/kg
- fractional inhibitory concentration index (FICI) (Candida albicans [35]): 0.25 - 0.313
- fractional inhibitory concentration index (FICI) (Candida albicans [36]): 0.25 - 0.313
- fractional inhibitory concentration index (FICI) (Saccharomyces cerevisiae [37]): 0.25 - 0.313
- fractional inhibitory concentration index (FICI) (Saccharomyces cerevisiae [38]): 0.25 - 0.313

SMILES: Fc1ccc(C(c2ccc(F)cc2)N2CCN(C/C=C/c3ccccc3)CC2)cc1
- fractional inhibitory concentration index (FICI) (Candida albicans [39]): 0.017 to 0.035
- fractional inhibitory concentration index (FICI) (Candida albicans [40]): 0.017 to 0.035

SMILES: CCOC(=O)C1=C(COCCN)NC(C)=C(C(=O)OC)C1c1ccccc1Cl (centres undefined)
- fractional inhibitory concentration index (FICI) (Candida albicans [39]): 0.017 to 0.035
- fractional inhibitory concentration index (FICI) (Candida albicans [40]): 0.017 to 0.035
